Measurements from patent US9115134B2, “6-triazolopyridazine sulfanyl benzothiazole derivatives as MET inhibitors” (SANOFI, priority 2007, dated 2015).

Experiments:
[1] = system: HCT116 cells, MKN45 cells; assay: Test C: Measurement of cell proliferation by 14C-thymidine pulse; format: cell-based; conditions: 14C-thymidine incorporation, 96 h of treatment; cell line not given
Description: (§1) Stop the reaction with 100 μl of stop solution. Read without delay at […], 0.1 second on Wallac Victor plate reader. • C) Test C: Measurement of cell proliferation by ^14c-thymidine pulse
The cells are seeded into Cytostar 96-well plates in 180 μl for 4 hours at 37° C. and 5% CO2: HCT116 cells at a rate of 2500 cells per well in DMEM medium+10% foetal calf serum+1% L-glutamine and MKN45 cells at a rate of 7500 cells per well in RPMI medium+10% foetal calf serum+1% L-glutamine. After these 4 hours of incubation, the products are added in 10 μl as a 20-fold concentrated solution according to the dilution method mentioned for the ELISA. The products are tested at 10 concentrations in duplicate from 10 000 nM to 0.3 nM with an increment of 3.
After treatment for 72 h, add 10 μl of ^14C-thymidine at 10 μCi/ml to obtain 0.1 μCi per well. The ^14C-thymidine incorporation is measured on a Micro-Beta machine (Perkin-Elmer) after 24 hours of pulse and 96 h of treatment.
All the steps of the assay are automated on BIOMEK 2000 or TECAN stations.

[2] = biological target: T1, MET (Homo sapiens, UniProt P08581); assay: Test B: Inhibition of the autophosphorylation of MET; ELISA technique (pppY1230,1234,1235) in MKN45 cells; format: cell-based; set-up: Seed MKN45 cells into 96-well plates (Cell coat BD polylysine) at 20 000 cells/well; endogenous in cells; host or cells: MKN45 cells; conditions: 1 h treatment, PhosphoMET ELISA
Description: Leave to adhere for 24 hours in an incubator.
The cells are treated the day after seeding with the products at 6 concentrations in duplicate for 1 h. At least 3 control wells are treated with the same final amount of DMSO.
Product dilution: Stock at 10 mM in pure DMSO—range from 10 mM to 30 μM with an increment of 3 in pure DMSO—intermediate 1/50 dilutions in culture medium and then removal of 10 μl added directly to the cells (200 μl): final range of 10 000 to 30 nM.
At the end of the incubation, carefully remove the supernatant and rinse with 200 μl of PBS. Next, place 100 μl of lysis buffer directly in the wells on ice and incubate at 4° C. for 30 minutes. Lysis buffer: 10 mM Tris HCl, pH7.4, 100 mM NaCl, 1 mM EDTA, 1 mM EGTA, 1% Triton X-100, 10% glycerol, 0.1% SDS, 0.5% deoxycholate, 20 mM NaF, 2 mM Na3VO4, 1 mM PMSF and cocktail of antiproteases.
The 100 μl of lysates are transferred into a V-bottomed polypropylene plate and the ELISA is performed immediately, or the plate is frozen at −80° C. • b) PhosphoMET ELISA BioSource Kit KH00281
Into each well of the kit plate, add 70 μl of kit dilution buffer+30 μL of cell lysate or 30 μl of lysis buffer for the blanks. Incubate for 2 h with gentle agitation at ambient temperature.
Rinse the wells 4 times with 400 μl of kit washing buffer. Incubate with 100 μl of anti-phospho MET antibody for 1 hour at ambient temperature.
Rinse the wells 4 times with 400 μl of kit washing buffer. Incubate with 100 μl of anti-rabbit HRP antibody for 30 minutes at ambient temperature (except for the wells of chromogen alone).
Rinse the wells 4 times with 400 μl of kit washing buffer. Introduce 100 μL of chromogen and incubate for 30 minutes in the dark at ambient temperature.
as §1
Target sequence in this assay (P08581 25-1390): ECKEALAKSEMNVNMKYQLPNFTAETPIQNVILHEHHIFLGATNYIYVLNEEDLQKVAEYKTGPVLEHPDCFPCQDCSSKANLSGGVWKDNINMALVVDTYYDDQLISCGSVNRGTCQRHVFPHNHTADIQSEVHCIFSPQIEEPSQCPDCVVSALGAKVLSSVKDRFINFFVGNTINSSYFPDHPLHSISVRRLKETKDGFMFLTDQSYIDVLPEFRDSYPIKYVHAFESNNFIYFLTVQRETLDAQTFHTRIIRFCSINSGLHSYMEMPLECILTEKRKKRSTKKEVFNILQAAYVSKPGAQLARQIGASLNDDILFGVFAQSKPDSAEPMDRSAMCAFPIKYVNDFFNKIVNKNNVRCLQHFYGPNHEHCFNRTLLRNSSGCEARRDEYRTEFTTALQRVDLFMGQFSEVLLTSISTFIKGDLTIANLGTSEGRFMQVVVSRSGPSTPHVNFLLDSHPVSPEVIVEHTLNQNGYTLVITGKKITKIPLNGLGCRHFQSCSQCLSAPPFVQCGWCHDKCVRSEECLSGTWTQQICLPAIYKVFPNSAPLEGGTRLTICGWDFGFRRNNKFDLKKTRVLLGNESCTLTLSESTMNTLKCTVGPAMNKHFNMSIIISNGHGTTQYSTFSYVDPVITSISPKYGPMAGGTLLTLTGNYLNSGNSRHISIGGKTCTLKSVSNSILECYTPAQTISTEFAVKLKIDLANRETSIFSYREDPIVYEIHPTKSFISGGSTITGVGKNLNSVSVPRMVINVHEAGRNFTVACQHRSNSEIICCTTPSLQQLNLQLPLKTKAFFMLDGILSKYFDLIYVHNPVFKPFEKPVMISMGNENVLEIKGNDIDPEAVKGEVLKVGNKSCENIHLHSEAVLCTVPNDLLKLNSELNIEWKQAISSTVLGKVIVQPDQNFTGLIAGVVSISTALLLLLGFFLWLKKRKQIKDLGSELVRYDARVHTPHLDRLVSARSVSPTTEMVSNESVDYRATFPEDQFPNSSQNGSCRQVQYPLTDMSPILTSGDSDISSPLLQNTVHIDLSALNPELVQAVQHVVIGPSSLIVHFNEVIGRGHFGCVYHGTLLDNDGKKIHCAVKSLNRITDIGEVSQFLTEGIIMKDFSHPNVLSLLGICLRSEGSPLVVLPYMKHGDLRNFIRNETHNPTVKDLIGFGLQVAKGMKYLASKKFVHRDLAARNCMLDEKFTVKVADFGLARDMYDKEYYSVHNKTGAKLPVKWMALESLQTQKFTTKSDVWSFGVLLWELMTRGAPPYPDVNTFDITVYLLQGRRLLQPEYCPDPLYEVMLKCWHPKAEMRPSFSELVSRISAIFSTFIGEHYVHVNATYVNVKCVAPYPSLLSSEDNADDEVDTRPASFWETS

[3] = biological target: T1, MET; assay: Test A: HTRF MET assay in 96-well format; format: biochemical; set-up: The His-Tev-MET (956-1390) recombinant DNA in pFastBac (Invitrogen) is transfected into insect cells; His tag (N, cleaved yes); TEV cleavage site (N); made in house; host or cells: SF21 insect cells (baculovirus, pFastBac); conditions: MET 5 nM, 10 μM ATP
Description: I) Expression and Purification of MET, Cytoplasmic Domain
The His-Tev-MET (956-1390) recombinant DNA in pFastBac (Invitrogen) is transfected into insect cells, and after several viral amplification steps, the final baculovirus stock is tested for the expression of the protein of interest.
After infection for 72 h at 27° C. with the recombinant virus, the SF21 cell cultures are harvested by centrifugation and the cell pellets are stored at −80° C.
The cell pellets are resuspended in lysis buffer (buffer A [50 mM HEPES, pH 7.5, 250 mM NaCl, 10% glycerol, 1 mM TECP]; +cocktail of protease inhibitors, Roche Diagnostics, without EDTA, ref 1873580), stirred at 4° C. until the mixture is homogeneous and then lyzed mechanically using a “Dounce” type apparatus.
After centrifugation, the lysis supernatant is incubated for 2 h at 4° C. with nickel chelate resin (His-Trap 6 Fast Flow™, GE HealthCare). After washing with 20 volumes of buffer A, the suspension is packed into a column, and the proteins are eluted with a gradient of buffer B ([…]+290 mM imidazole).
The fractions containing the protein of interest for the purpose of electrophoretic analysis (SDS PAGE) are combined, concentrated by ultrafiltration (10 kDa cut-off) and injected onto an exclusion chromatography column (Superdex™ 200, GE HealthCare) equilibrated in buffer A.
After enzymatic cleavage of the histidine tag, the protein is reinjected onto a new IMAC nickel chelate chromatography column (His-Trap 6 Fast Flow™, GE HealthCare) equilibrated in buffer A. The fractions eluted with a gradient of buffer B and containing the protein of interest after electrophoresis (SDS PAGE) are finally combined and conserved at −80° C.
For the production of autophosphorylated protein, the previous fractions are incubated for 1 h at ambient temperature after the addition of 2 mM ATP, 2 mM MgCl2, and 4 mM Na3VO4. After the reaction has been stopped with 5 mM of EDTA, the reaction mixture is injected onto a HiPrep desalifying column (GE HealthCare) preequilibrated in buffer A+4 mM Na3VO4, and the fractions containing the protein of interest (SDS PAGE analysis) are combined and stored at −80° C. The degree of phosphorylation is verified by mass spectrometry (LC-MS) and by peptide mapping.
• A) Test A: HTRF MET assay in 96-well format
MET at a final concentration of 5 nM is incubated in a final volume of 50 μl of enzymatic reaction in the presence of the test molecule (for a final concentration range of from 0.17 nM to 10 μM, 3% DMSO final concentration) in 10 mM MOPS buffer, pH 7.4, 1 mM DTT, 0.01% Tween 20. The reaction is initiated with the substrate solution to obtain final concentrations of 1 μg/ml poly-(GAT), 10 μM ATP and 5 mM MgCl2. After incubation for 10 min at ambient temperature, the reaction is stopped with a 30 μl mix so as to obtain a final solution of 50 mM Hepes pH 7.5, 500 mM potassium fluoride, 0.1% BSA and 133 mM EDTA in the presence of 80 ng of streptavidin 61SAXLB Cis-Bio Int. and 18 ng of anti-phosphotyrosine Mab PT66-Europium Cryptate per well. After incubation for 2 hours at ambient temperature, the reading is taken at 2 wavelengths, 620 nm and 665 nm, on a reader for the TRACE/HTRF technique and the % inhibition is calculated from the 665/620 ratios.
Target sequence in this assay (P08581 956-1390): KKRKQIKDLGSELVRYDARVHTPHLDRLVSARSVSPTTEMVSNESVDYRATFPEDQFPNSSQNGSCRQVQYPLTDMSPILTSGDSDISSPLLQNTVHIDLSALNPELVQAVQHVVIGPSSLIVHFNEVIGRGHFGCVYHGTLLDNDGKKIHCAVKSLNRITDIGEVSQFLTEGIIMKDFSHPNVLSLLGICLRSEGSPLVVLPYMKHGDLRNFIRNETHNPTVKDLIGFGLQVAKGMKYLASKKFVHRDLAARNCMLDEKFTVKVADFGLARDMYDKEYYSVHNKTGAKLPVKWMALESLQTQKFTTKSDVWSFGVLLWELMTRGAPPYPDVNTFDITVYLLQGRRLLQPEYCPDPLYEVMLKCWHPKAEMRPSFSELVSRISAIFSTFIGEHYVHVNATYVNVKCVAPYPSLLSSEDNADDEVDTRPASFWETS

| SMILES | IC50 [1] | IC50 [2] | IC50 [3] |
| --- | --- | --- | --- |
| O=C(NCC[N+]1([O-])CCOCC1)Nc1nc2ccc(Sc3nnc4ccc(-c5ccc(F)cc5)nn34)cc2s1 [Example 42, 1-(6-{[6-(4-Fluorophenyl)[1,2,4]triazolo[4,3-b]pyridazin-3-yl]sulphanyl}-1,3-benzothiazol-2-yl)-3-[2-(4-oxidomorpholin-4-yl)ethyl]urea] | < 1000 nM | < 100 nM | < 100 nM |
| Nc1nc2ccc(Sc3nnc4ccc(-c5cccc(F)c5)nn34)cc2s1 [Example 53, 6-{[6-(3-Fluorophenyl)[1,2,4]triazolo[4,3-b]pyridazin-3-yl]sulphanyl}-1,3-benzothiazol-2-amine] | < 1000 nM | < 100 nM | < 100 nM |
| COc1ccc2nnc(Sc3ccc4nc(NC(=O)C5CC5)sc4c3)n2n1 [Example 36, N-{6-[(6-Methoxy[1,2,4]triazolo[4,3-b]pyridazin-3-yl)sulphanyl]-1,3-benzothiazol-2-yl}cyclopropanecarboxamide] | < 1000 nM | < 100 nM | < 100 nM |
| Nc1nc2ccc(Sc3nnc4ccc(-c5ccccc5F)nn34)cc2s1 [Example 56, 6-{[6-(2-Fluorophenyl)[1,2,4]triazolo[4,3-b]pyridazin-3-yl]sulphanyl}-1,3-benzothiazol-2-amine] | < 1000 nM | 100 to 500 nM | < 100 nM |
| CC(C)(C)OC(=O)Nc1nc2ccc(Sc3nnc4ccc(-c5ccc(F)cc5)nn34)cc2s1 [Example 2, 1,1-Dimethylethyl (6-{[6-(4-fluorophenyl)[1,2,4]triazolo[4,3-b]pyridazin-3-yl]sulphanyl}-1,3-benzothiazol-2-yl)carbamate] | < 1000 nM | 100 to 500 nM | < 100 nM |
| COCCNc1ccc2nnc(Sc3ccc4nc(NC(C)=O)sc4c3)n2n1 [Example 27, N-[6-({6-[(2-Methoxyethyl)amino][1,2,4]triazolo[4,3-b]pyridazin-3-yl}sulphanyl)-1,3-benzothiazol-2-yl]acetamide] | < 1000 nM | < 100 nM | < 100 nM |
| Nc1nc2ccc(Sc3ccc(C4=Nn5c(nnc5Sc5ccc6nc(N)sc6c5)CC4)cc3)cc2s1 [Example 8, 6-[(4-{3-[(2-amino-1,3-benzothiazol-6-yl)sulphanyl]-7,8-dihydro[1,2,4]triazolo-[4,3-b]pyridazin-6-yl}phenyl)sulphanyl]-1,3-benzothiazol-2-amine] | < 10000 nM | > 500 nM | < 100 nM |
| CCOc1ccc2nnc(Sc3ccc4nc(NC(=O)NCCN5CCOCC5)sc4c3)n2n1 [Example 37, 1-{6-[(6-Ethoxy[1,2,4]triazolo[4,3-b]pyridazin-3-yl)sulphanyl]-1,3-benzothiazol-2-yl}-3-[2-(morpholin-4-yl)ethyl]urea] | < 1000 nM | < 100 nM | < 100 nM |
| Nc1nc2ccc(Sc3nnc4ccc(OC5CCCCC5)nn34)cc2s1 [Example 63, 6-{[6-(Cyclohexyloxy)[1,2,4]triazolo[4,3-b]pyridazin-3-yl]sulphanyl}-1,3-benzothiazol-2-amine] | < 1000 nM | 100 to 500 nM | < 100 nM |
| O=C(NCCN1CCOCC1)Nc1nc2ccc(Sc3nnc4ccc(-c5ccc(F)cc5)nn34)cc2s1 [Example 9, 1-(6-{[6-(4-Fluorophenyl)[1,2,4]triazolo[4,3-b]pyridazin-3-yl]sulphanyl}-1,3-benzothiazol-2-yl)-3-(2-morpholin-4-ylethyl)urea] | < 1000 nM | < 100 nM | < 100 nM |
| COc1ccc2nnc(Sc3ccc4nc(NC(=O)OC(C)(C)C)sc4c3)n2n1 [Example 21, 1,1-Dimethylethyl {6-[(6-methoxy[1,2,4]triazolo[4,3-b]pyridazin-3-yl)sulphanyl]-1,3-benzothiazol-2-yl}carbamate] | < 1000 nM | 100 to 500 nM | < 100 nM |
| CC(=O)Nc1nc2ccc(Sc3nnc4ccc(-c5ccc(F)cc5)nn34)cc2s1 [Example 41, N-(6-{[6-(4-Fluorophenyl)[1,2,4]triazolo[4,3-b]pyridazin-3-yl]sulphanyl}-1,3-benzothiazol-2-yl)acetamide] | < 1000 nM | < 100 nM | < 100 nM |
